Test results taken from ChEMBL document CHEMBL4342527, “Discovery of Novel Fungal Lanosterol 14α-Demethylase (CYP51)/Histone Deacetylase Dual Inhibitors to Treat Azole-Resistant Candidiasis” (J Med Chem, 2020).
Values after ≈ are worked out from the molar mass of the structure shown. Active and inactive are the calls of the source. No cut-off for these calls is given here.

Experiments:
Candida albicans [1] = assay: Antifungal activity against azole-resistant Candida albicans 0304103 infected in ICR mouse assessed as inhibition of fungal infection in kidney at 20 mg/kg, ip qd for 5 days and measured on day 6 by periodic acid schiff staining-based histological analysis; assay type: functional, organism-based
[2] = Selectivity index, ratio of IC50 for HUVEC to MIC80 for azole-resistant Candida albicans 4108; assay type: toxicity; settings: human
Candida albicans [3] = assay: Antifungal activity against azole-resistant Candida albicans 0304103 infected in ICR mouse assessed as inhibition of fungal infection in kidney at 20 mg/kg, po qd for 5 days and measured on day 6 by periodic acid schiff staining-based histological analysis; assay type: functional, organism-based
Candida albicans [4] = assay: Inhibition of HDAC in azole-resistant Candida albicans 0304103 assessed as reduction in CDR2 gene expression at 32 ug/ml after 16 hrs by SYBR Green-1 dye based RT-PCR analysis; settings: 304103
Candida tropicalis = assay: Antifungal activity against azole-resistant Candida tropicalis 5008 after 48 hrs by spectrophotometry-based serial microdilution method; assay type: functional; settings: Candida tropicalis, 5008, 48 h
Candida albicans [5] = assay: Antifungal activity against azole-resistant Candida albicans 0304103 infected in ICR mouse assessed as reduction in fungal burden in kidney by measuring colony forming units at 20 mg/kg, ip qd for 5 days measured 24 hrs post-last dose (reference value: 6.89 log10CFU/g); assay type: functional
[6] = Selectivity index, ratio of IC50 for HUVEC to MIC80 for azole-resistant Candida tropicalis 5008; assay type: toxicity; settings: human
Candida albicans [7] = assay: Antifungal activity against azole-resistant Candida albicans 0304103 infected in ICR mouse assessed as reduction in fungal burden in kidney at 20 mg/kg, po qd for 5 days measured 24 hrs post-last dose; assay type: functional, organism-based
[8] = molecular target: Lanosterol 14-alpha demethylase (Candida albicans (strain SC5314 / ATCC MYA-2876) (Yeast), UniProt P10613); assay: Inhibition of CYP51 in azole-resistant Candida albicans 0304103 assessed as ergosterol content at 0.5 ug/ml after 24 hrs by GC-MS analysis (reference value: 75.21%); parameters: scale not given: the % may be the effect or the level left
Lanosterol 14-alpha demethylase, sequence (P10613 whole entry): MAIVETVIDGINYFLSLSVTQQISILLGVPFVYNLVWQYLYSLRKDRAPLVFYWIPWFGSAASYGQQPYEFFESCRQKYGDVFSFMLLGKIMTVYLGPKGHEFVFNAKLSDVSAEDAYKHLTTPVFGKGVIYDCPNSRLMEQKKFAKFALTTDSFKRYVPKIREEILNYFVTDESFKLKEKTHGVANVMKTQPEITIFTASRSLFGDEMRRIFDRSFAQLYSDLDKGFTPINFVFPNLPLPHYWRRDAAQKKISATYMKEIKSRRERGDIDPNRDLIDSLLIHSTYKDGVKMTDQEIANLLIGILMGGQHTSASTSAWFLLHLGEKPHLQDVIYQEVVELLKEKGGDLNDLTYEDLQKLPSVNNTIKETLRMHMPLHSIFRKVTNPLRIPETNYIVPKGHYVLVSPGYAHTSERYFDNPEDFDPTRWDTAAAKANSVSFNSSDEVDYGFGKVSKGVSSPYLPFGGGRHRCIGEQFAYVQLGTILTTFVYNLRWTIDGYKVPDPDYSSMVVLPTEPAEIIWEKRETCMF

A549 = assay: Cytotoxicity against human A549 cells assessed as reduction in cell viability after 48 hrs by CCK-8 assay based spectrophotometric analysis; settings: A549, 48 h
Histone deacetylase = assay: Inhibition of HDAC in HUVEC using Boc-Lys(Ac)-AMC as substrate preincubated for 12 hrs followed by substrate addition and measured after 4 hrs by fluorimetry; assay type: ADME, cell-based, Homo sapiens
Candida albicans [9] = assay: Antifungal activity against azole-resistant Candida albicans 0304103 infected in ICR mouse assessed as inhibition of filamentation at 20 mg/kg, po qd for 5 days and measured on day 6 by periodic acid schiff staining-based histological analysis; assay type: functional, organism-based
[10] = Selectivity index, ratio of IC50 for HUVEC to MIC80 for azole-resistant Candida albicans 0304103; assay type: toxicity; settings: human
[11] = Selectivity index, ratio of IC50 for HUVEC to MIC80 for azole-resistant Candida albicans 7781; assay type: toxicity; settings: human
Histone deacetylase 1 = Histone deacetylase 1 (Homo sapiens, UniProt Q13547); assay: Inhibition of HDAC1 (unknown origin) after 30 mins by fluorescence based assay
Histone deacetylase 1, sequence (Q13547 whole entry): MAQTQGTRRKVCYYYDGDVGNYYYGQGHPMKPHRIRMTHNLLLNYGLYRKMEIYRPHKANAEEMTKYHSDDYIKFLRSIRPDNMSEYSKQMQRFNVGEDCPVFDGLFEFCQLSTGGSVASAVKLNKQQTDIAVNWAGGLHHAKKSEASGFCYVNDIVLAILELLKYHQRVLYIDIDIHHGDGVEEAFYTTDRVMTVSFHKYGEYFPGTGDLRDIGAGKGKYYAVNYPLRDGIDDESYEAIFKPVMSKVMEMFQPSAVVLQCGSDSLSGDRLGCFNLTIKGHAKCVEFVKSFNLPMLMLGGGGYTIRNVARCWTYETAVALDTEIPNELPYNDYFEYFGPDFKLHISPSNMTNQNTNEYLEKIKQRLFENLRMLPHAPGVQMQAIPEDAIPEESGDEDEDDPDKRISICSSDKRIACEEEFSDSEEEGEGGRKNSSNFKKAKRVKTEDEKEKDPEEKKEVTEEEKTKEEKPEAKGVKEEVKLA

Candida albicans [12] = assay: Inhibition of yeast to hypha transition in azole resistant Candida albicans 0304103 assessed as down regulation of CPH1 gene expression at 32 ug /ml after 16 hrs by SYBR Green I dye based RT-PCR analysis; assay type: functional, organism-based
Candida albicans [13] = assay: Antifungal activity against azole-resistant Candida albicans 0304103 after 48 hrs by spectrophotometry-based serial microdilution method; assay type: functional; settings: Candida albicans, 0304103, 48 h
Candida albicans [14] = assay: Inhibition of HDAC in azole-resistant Candida albicans 0304103 assessed as reduction in CDR1 gene expression at 32 ug/ml after 16 hrs by SYBR Green-1 dye based RT-PCR analysis; settings: 304103
Candida albicans [15] = assay: Antifungal activity against azole-resistant Candida albicans 4108 after 48 hrs by spectrophotometry-based serial microdilution method; assay type: functional; settings: Candida albicans, 4108, 48 h
Candida albicans [16] = assay: Inhibition of biofilm formation in azole resistant Candida albicans 0304103 after 24 hrs by XTT assay; assay type: functional, organism-based
[17] = Selectivity index, ratio of IC50 for human A549 cells to MIC80 for azole-resistant Candida albicans 7781; assay type: toxicity
Candida albicans [18] = assay: Inhibition of yeast to hypha transition in azole resistant Candida albicans 0304103 assessed as down regulation of EFG1 gene expression at 32 ug /ml after 16 hrs by SYBR Green I dye based RT-PCR analysis; assay type: functional, organism-based
Candida albicans [19] = assay: Antifungal activity against azole-resistant Candida albicans 0304103 infected in ICR mouse assessed as inhibition of filamentation at 20 mg/kg, ip qd for 5 days and measured on day 6 by periodic acid schiff staining-based histological analysis; assay type: functional, organism-based
Candida albicans [20] = assay: Antifungal activity against azole-sensitive Candida albicans SC5314 after 48 hrs by spectrophotometry-based serial microdilution method; assay type: functional; settings: Candida albicans, SC5314, 48 h; read-out: MIC80
Candida albicans [21] = assay: Antifungal activity against azole-resistant Candida albicans 7781 after 48 hrs by spectrophotometry-based serial microdilution method; assay type: functional; settings: Candida albicans, 7781, 48 h
[22] = Selectivity index, ratio of IC50 for human A549 cells to MIC80 for azole-resistant Candida albicans 0304103; assay type: toxicity
Cryptococcus neoformans = assay: Antifungal activity against azole-sensitive Cryptococcus neoformans H99 after 72 hrs by spectrophotometry-based serial microdilution method; assay type: functional, var grubii H99; settings: Cryptococcus neoformans, var grubii H99 , 72 h; read-out: MIC80
HUVEC = assay: Cytotoxicity against HUVEC assessed as reduction in cell viability after 48 hrs by CCK-8 assay based spectrophotometric analysis; settings: Homo sapiens
Candida albicans [23] = assay: Antifungal activity against azole-resistant Candida albicans 0304103 infected in ICR mouse assessed as mean survival time at 20 mg/kg, ip qd for 5 days (reference value: 10 days); assay type: functional
Candida albicans [24] = assay: Inhibition of yeast to hypha transition in azole resistant Candida albicans 0304103 assessed as down regulation of TEC1 gene expression at 32 ug /ml after 16 hrs by SYBR Green I dye based RT-PCR analysis; assay type: functional, organism-based
Candida albicans [25] = assay: Inhibition of biofilm formation in azole resistant Candida albicans 0304103 assessed as down regulation of ALS3 gene expression at 32 ug /ml after 16 hrs by SYBR Green I dye based RT-PCR analysis; assay type: functional, organism-based

Compound | inhibition (Candida albicans [1]) | selectivity ratio [2] | inhibition (Candida albicans [3]) | inhibition (Candida albicans [4]) | MIC80 (Candida tropicalis) [µg/mL] | Activity (Candida albicans [5]) [log10CFU/g] | selectivity ratio [6] | Activity (Candida albicans [7]) | Activity [8] [%] | IC50 (A549) [µM] | IC50 (Histone deacetylase) [µM] | inhibition (Candida albicans [9]) | selectivity ratio [10] | selectivity ratio [11] | IC50 (Histone deacetylase 1) [µM] | inhibition (Candida albicans [12]) | MIC80 (Candida albicans [13]) [µg/mL] | inhibition (Candida albicans [14]) | MIC80 (Candida albicans [15]) [µg/mL] | inhibition (Candida albicans [16]) | further results
CN(Cc1ccc(OCCCOc2ccc(CC(=O)NO)cc2)cc1)CC(O)(Cn1cncn1)c1ccc(F)cc1F (racemic) | Active | 2 to 16 | Active | Active | 0.25 (≈ 0.43 µM) | 6.16 | 2 to 16 | Active | 18.44 | 6.7 to 25.4 | 2.7 | Active | 2 to 16 | 2 to 16 | 0.69 | Active | 0.25 (≈ 0.43 µM) | Active | 0.5 (≈ 0.86 µM) | Dose-dependent effect | selectivity ratio [17]: 2 to 16; inhibition (Candida albicans [18]): Active; inhibition (Candida albicans [19]): Active; MIC80 (Candida albicans [20]): 0.125 µg/mL (≈ 0.215 µM); MIC80 (Candida albicans [21]): 0.5 µg/mL (≈ 0.86 µM); selectivity ratio [22]: 2 to 16; MIC80 (Cryptococcus neoformans): 0.5 µg/mL (≈ 0.86 µM); IC50 (HUVEC): 6.7 to 25.4 µM; MST (Candida albicans [23]): 16.5 days; inhibition (Candida albicans [24]): Active; inhibition (Candida albicans [25]): Active
CN(Cc1ccc(-n2cnn(CCCCc3ccc(C(=O)NO)cc3)c2=O)cc1)CC(O)(Cn1cncn1)c1ccc(F)cc1F (racemic) | Active | 2 to 16 | Active | Active | 8 (≈ 12.6 µM) | 4.49 | 2 to 16 | Active | 61.48 | 6.7 to 25.4 | 6.8 | Active | 2 to 16 | 2 to 16 | 0.28 | Active | 2 (≈ 3.16 µM) | Active | 8 (≈ 12.6 µM) | Dose-dependent effect | selectivity ratio [17]: 2 to 16; inhibition (Candida albicans [18]): Active; inhibition (Candida albicans [19]): Active; MIC80 (Candida albicans [20]): 4 µg/mL (≈ 6.32 µM); MIC80 (Candida albicans [21]): 2 µg/mL (≈ 3.16 µM); selectivity ratio [22]: 2 to 16; MIC80 (Cryptococcus neoformans): 2 µg/mL (≈ 3.16 µM); IC50 (HUVEC): 6.7 to 25.4 µM; MST (Candida albicans [23]): 20 days; inhibition (Candida albicans [24]): Active; inhibition (Candida albicans [25]): Active
